Experimental data published in ChEMBL document CHEMBL3576804, “Novel Potent Orthosteric Antagonist of ASIC1a Prevents NMDAR-Dependent LTP Induction” (J Med Chem, 2015).
Active and inactive are the calls of the source. No cut-off for these calls is given here.

Tests used:
[1] = molecular target: T1, Acid-sensing ion channel 1 (Homo sapiens) (UniProt P78348); experiment: Inhibition of human ASIC1a endogenously expressed in HEK293 cells clamped at -100 mV gated ionic current at 10 uM at pH 6.7 by standard whole cell patch clamp assay; assay type: cell-based
T1 sequence (whole entry): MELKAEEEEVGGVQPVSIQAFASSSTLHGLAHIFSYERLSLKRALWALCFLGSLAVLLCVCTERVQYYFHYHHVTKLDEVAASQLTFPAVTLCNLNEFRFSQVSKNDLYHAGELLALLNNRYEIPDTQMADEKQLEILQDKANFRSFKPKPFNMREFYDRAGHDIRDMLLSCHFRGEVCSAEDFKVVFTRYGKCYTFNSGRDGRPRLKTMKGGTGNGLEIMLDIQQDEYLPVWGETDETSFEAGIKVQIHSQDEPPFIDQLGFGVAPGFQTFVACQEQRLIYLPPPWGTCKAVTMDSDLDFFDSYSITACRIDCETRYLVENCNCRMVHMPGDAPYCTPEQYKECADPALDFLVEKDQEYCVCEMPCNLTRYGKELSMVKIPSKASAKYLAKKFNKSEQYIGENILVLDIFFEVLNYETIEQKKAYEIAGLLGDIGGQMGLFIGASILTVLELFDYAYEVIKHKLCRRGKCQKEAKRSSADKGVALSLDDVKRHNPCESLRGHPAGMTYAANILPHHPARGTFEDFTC

[2] = molecular target: T1, Acid-sensing ion channel 1 (Homo sapiens); experiment: Inhibition of human ASIC1a endogenously expressed in HEK293 cells clamped at -100 mV gated ionic current at 100 uM at pH 5.0 by standard whole cell patch clamp assay; assay type: cell-based
[3] = molecular target: T1, Acid-sensing ion channel 1 (Homo sapiens); experiment: Inhibition of human ASIC1a endogenously expressed in HEK293 cells clamped at -100 mV gated ionic current at 10 uM at pH 5.0 by standard whole cell patch clamp assay; assay type: cell-based
[4] = molecular target: T1, Acid-sensing ion channel 1 (Homo sapiens); experiment: Inhibition of human ASIC1a endogenously expressed in HEK293 cells clamped at -100 mV gated ionic current at 100 uM at pH 6.7 by standard whole cell patch clamp assay; assay type: cell-based
[5] = molecular target: T2, Acid-sensing ion channel 2 (Rattus norvegicus) (UniProt Q62962); experiment: Inhibition of ASIC2 in Wistar rat hippocampal neurons assessed as slow ASIC2-like currents level at 10 uM by patch clamp assay; parameters: scale not given: the % may be the effect or the level left
T2 sequence (whole entry): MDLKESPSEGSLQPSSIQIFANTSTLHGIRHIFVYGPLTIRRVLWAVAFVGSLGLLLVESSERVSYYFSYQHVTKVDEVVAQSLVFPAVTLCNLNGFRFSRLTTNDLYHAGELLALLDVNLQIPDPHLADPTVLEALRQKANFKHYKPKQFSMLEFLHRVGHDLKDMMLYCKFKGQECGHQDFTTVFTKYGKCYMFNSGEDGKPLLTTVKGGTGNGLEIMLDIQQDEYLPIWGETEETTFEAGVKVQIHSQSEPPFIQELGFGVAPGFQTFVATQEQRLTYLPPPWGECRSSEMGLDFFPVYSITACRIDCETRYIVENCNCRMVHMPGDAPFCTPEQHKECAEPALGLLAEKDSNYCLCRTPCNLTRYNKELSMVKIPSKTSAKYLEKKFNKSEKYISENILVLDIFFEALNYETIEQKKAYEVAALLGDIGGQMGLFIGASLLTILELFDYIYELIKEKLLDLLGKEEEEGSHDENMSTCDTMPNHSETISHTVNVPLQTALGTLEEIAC

[6] = molecular target: T3, Acid-sensing ion channel 1 (Homo sapiens, UniProt P78348); experiment: Orthosteric non-competitive inhibition of human ASIC1a endogenously expressed in HEK293 cells clamped at -100 mV gated ionic current assessed as EC50 for steady state activation at 100 nM by standard whole cell patch clamp assay (reference value: 6.57 +/- 0.01 pH); assay type: cell-based
T3 sequence (P78348 whole entry): T1 sequence (whole entry)

[7] = molecular target: T1, Acid-sensing ion channel 1 (Homo sapiens); experiment: Inhibition of human ASIC1a endogenously expressed in HEK293 cells clamped at -100 mV gated ionic current at 100 nM at pH 6.7 by standard whole cell patch clamp assay; assay type: cell-based
Hippocampus [8] = experiment: Increase in short-term potentiation in Wistar rat hippocampal CA3-CA1 region at 100 nM by patch clamp method (reference value: 225.9 +/- 12.4%); assay type: functional
Hippocampus [9] = experiment: Effect on NMDAR-independent long-term potentiation in Wistar rat hippocampal MF-CA3 region at 100 nM in presence of NMDA receptor blocker MK801 by patch clamp method (reference value: 118.3 +/- 9.6%); assay type: functional
[10] = molecular target: T3, Acid-sensing ion channel 1; experiment: Orthosteric non-competitive inhibition of human ASIC1a endogenously expressed in HEK293 cells clamped at -100 mV gated ionic current assessed as EC50 for steady state activation at 1 uM by standard whole cell patch clamp assay (reference value: 6.57 +/- 0.01 pH); assay type: cell-based
[11] = molecular target: T4, Acid-sensing ion channel 1 (Rattus norvegicus) (UniProt P55926); experiment: Inhibition of ASIC1a in Wistar rat hippocampal neurons assessed as ASIC1a-like currents level at 10 uM by patch clamp assay; parameters: scale not given: the % may be the effect or the level left
T4 sequence (whole entry): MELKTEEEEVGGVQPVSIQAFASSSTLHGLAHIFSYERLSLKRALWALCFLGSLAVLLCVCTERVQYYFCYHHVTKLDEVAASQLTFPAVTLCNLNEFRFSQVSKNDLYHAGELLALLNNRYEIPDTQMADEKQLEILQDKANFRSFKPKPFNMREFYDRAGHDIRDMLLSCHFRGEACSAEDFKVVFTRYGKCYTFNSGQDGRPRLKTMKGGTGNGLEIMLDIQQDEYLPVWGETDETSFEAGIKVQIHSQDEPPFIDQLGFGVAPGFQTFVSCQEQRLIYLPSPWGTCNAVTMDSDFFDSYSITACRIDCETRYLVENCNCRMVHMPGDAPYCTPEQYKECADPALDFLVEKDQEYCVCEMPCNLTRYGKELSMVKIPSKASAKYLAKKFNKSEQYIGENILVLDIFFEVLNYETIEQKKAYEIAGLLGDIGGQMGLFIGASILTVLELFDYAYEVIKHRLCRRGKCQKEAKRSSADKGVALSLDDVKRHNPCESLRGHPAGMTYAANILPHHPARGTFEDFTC

[12] = molecular target: T3, Acid-sensing ion channel 1; experiment: Inhibition of human ASIC1a endogenously expressed in HEK293 cells clamped at -100 mV gated ionic current at pH 6.7 by standard whole cell patch clamp assay; assay type: cell-based
[13] = molecular target: T4, Acid-sensing ion channel 1 (Rattus norvegicus); experiment: Inhibition of ASIC1a in Wistar rat pyramidal hippocampal neurons assessed as ASIC1a-like currents level at 100 nM by patch clamp assay; parameters: scale not given: the % may be the effect or the level left
[14] = molecular target: T1, Acid-sensing ion channel 1 (Homo sapiens); experiment: Inhibition of human ASIC1a endogenously expressed in HEK293 cells clamped at -20 mV gated ionic current at 100 nM by standard whole cell patch clamp assay; assay type: cell-based
Hippocampus [15] = experiment: Inhibition of amplitude of inhibitory postsynaptic currents in Wistar rat hippocampal CA3-CA1 region at 100 nM by patch clamp method; assay type: functional, tissue-based
[16] = molecular target: T1, Acid-sensing ion channel 1 (Homo sapiens); experiment: Orthosteric non-competitive inhibition of human ASIC1a endogenously expressed in HEK293 cells clamped at -100 mV gated ionic current assessed as maximal evoked response for steady-state activation at 10 nM by standard whole cell patch clamp assay relative to untreated control; assay type: cell-based; parameters: scale not given: the % may be the effect or the level left
Hippocampus [17] = experiment: Increase in slope of field excitatory postsynaptic potential in Wistar rat hippocampal CA3-CA1 region at 100 nM by patch clamp method; assay type: functional, tissue-based
[18] = molecular target: T1, Acid-sensing ion channel 1 (Homo sapiens); experiment: Orthosteric non-competitive inhibition of human ASIC1a endogenously expressed in HEK293 cells clamped at -100 mV gated ionic current assessed as maximal evoked response for steady-state activation at 1 uM by standard whole cell patch clamp assay relative to untreated control; assay type: cell-based; parameters: scale not given: the % may be the effect or the level left
[19] = molecular target: T1, Acid-sensing ion channel 1 (Homo sapiens); experiment: Inhibition of human ASIC1a endogenously expressed in HEK293 cells clamped at -100 mV gated ionic current at 100 nM at pH 5.0 by standard whole cell patch clamp assay; assay type: cell-based
Hippocampus [20] = experiment: Increase in amplitude of field excitatory postsynaptic potential in Wistar rat hippocampal CA3-CA1 region at 100 nM by patch clamp method; assay type: functional, tissue-based
Hippocampus [21] = experiment: Blocking of short-term potentiation in Wistar rat hippocampal CA3-CA1 regions at 100 nM by patch clamp method (Rvb =142.9 +/- 25%); assay type: functional
[22] = molecular target: T1, Acid-sensing ion channel 1 (Homo sapiens); experiment: Reversible inhibition of human ASIC1a endogenously expressed in HEK293 cells clamped at -100 mV gated ionic current at pH 5.0 measured after drug wash out by standard whole cell patch clamp assay; assay type: cell-based
[23] = molecular target: T4, Acid-sensing ion channel 1 (Rattus norvegicus); experiment: Inhibition of ASIC1a in Wistar rat pyramidal hippocampal neurons assessed as reduction in main ionic currents at 1 uM by patch clamp assay
Hippocampus [24] = experiment: Inhibition of amplitude of excitatory postsynaptic currents in Wistar rat hippocampal CA3-CA1 region at 100 nM by patch clamp method; assay type: functional, tissue-based
[25] = molecular target: T5, Acid-sensing ion channel 3 (Rattus norvegicus) (UniProt O35240); experiment: Inhibition of ASIC3 in Wistar rat hippocampal neurons assessed as fast ASIC3-like currents level at 10 uM by patch clamp assay; parameters: scale not given: the % may be the effect or the level left
T5 sequence (whole entry): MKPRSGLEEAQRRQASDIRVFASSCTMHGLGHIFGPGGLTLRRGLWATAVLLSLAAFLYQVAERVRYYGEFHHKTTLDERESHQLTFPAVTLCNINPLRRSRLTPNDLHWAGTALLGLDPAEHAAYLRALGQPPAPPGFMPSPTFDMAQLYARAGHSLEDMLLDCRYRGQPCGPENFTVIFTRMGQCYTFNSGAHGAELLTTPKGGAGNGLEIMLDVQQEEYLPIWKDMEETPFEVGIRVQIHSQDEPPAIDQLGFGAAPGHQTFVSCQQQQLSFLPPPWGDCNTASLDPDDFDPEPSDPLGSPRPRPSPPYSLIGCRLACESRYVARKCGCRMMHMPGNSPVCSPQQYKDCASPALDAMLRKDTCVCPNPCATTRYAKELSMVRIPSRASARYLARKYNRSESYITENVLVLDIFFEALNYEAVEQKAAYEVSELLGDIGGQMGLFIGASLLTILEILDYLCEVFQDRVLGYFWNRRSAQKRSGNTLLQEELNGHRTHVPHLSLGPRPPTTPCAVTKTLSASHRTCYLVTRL

Hippocampus [26] = experiment: Effect on amplitude of field excitatory postsynaptic potential in Wistar rat hippocampal CA3-CA1 region at 100 nM by patch clamp method; assay type: functional
[27] = molecular target: T1, Acid-sensing ion channel 1 (Homo sapiens); experiment: Inhibition of human ASIC1a endogenously expressed in HEK293 cells clamped at -100 mV gated ionic current at 100 nM by standard whole cell patch clamp assay; assay type: cell-based
[28] = molecular target: T3, Acid-sensing ion channel 1; experiment: Orthosteric non-competitive inhibition of human ASIC1a endogenously expressed in HEK293 cells clamped at -100 mV gated ionic current assessed as EC50 for steady state activation at 10 nM by standard whole cell patch clamp assay (reference value: 6.57 +/- 0.01 pH); assay type: cell-based
Hippocampus [29] = experiment: Effect on slope of field excitatory postsynaptic potential in Wistar rat hippocampal CA3-CA1 region at 100 nM by patch clamp method; assay type: functional
[30] = molecular target: T3, Acid-sensing ion channel 1; experiment: Inhibition of human ASIC1a endogenously expressed in HEK293 cells clamped at -100 mV gated ionic current at pH 5.0 by standard whole cell patch clamp assay; assay type: cell-based
[31] = molecular target: T1, Acid-sensing ion channel 1 (Homo sapiens); experiment: Reversible inhibition of human ASIC1a endogenously expressed in HEK293 cells clamped at -100 mV gated ionic current at pH 6.7 measured after drug wash out by standard whole cell patch clamp assay; assay type: cell-based
[32] = molecular target: T1, Acid-sensing ion channel 1 (Homo sapiens); experiment: Orthosteric non-competitive inhibition of human ASIC1a endogenously expressed in HEK293 cells clamped at -100 mV gated ionic current assessed as maximal evoked response for steady-state activation at 100 nM by standard whole cell patch clamp assay relative to untreated control; assay type: cell-based; parameters: scale not given: the % may be the effect or the level left
[33] = molecular target: T1, Acid-sensing ion channel 1 (Homo sapiens); experiment: Inhibition of human ASIC1a endogenously expressed in HEK293 cells clamped at -100 mV gated ionic current at 100 nM in presence of cellular membrane depolarization by standard whole cell patch clamp assay; assay type: cell-based

CN(Cc1ccccc1)c1ccc2cc(C(=N)N)c(=O)oc2c1 gave an inhibition [1] of 42.9%, an inhibition [2] of 36.6% and an inhibition [3] of 79.2%. It also gave an inhibition [4] of 22.3%.

With CCN(CC)CCN(CC)c1ccc2cc(C(=N)N)c(=O)oc2c1 the inhibition [1] was 77.5%, the inhibition [2] was 78.7% and the inhibition [3] was 101%. The inhibition [4] was 53.2%.

CCN(CC)CCN(Cc1ccc(Cl)cc1)c1ccc2cc(C(=N)N)c(=O)oc2c1 showed an Activity [5] of 99.3%, an EC50 [6] of 6.4 pH and an inhibition [7] of 23.7%. The Activity (Hippocampus [8]) was 193.2%, the Activity (Hippocampus [9]) was 117% and the EC50 [10] was 6.18 pH. The Activity [11] was 48.3%, the IC50 [12] was 0.0274 µM and the inhibition [1] was 2.5%. The Activity [13] was 9.39%, the inhibition [14] was 45.8% and the inhibition (Hippocampus [15]) was “inactive”. The Activity [16] was 93.2%, the Activity (Hippocampus [17]) was “Active” and the Activity [18] was 72.2%. The inhibition [19] was 98.6%, the Activity (Hippocampus [20]) was “Active” and the inhibition [3] was 44.8%. For the same molecule, the Activity (Hippocampus [21]) was 106.2%, the inhibition [22] was “Active” and the inhibition [23] was “inactive”. The inhibition (Hippocampus [24]) was “inactive”, the Activity [25] was 45.2% and the Activity (Hippocampus [26]) was 104.6%. It also gave an inhibition [27] of 42.1%, an EC50 [28] of 6.5 pH and an Activity (Hippocampus [29]) of 103.4%. For the same molecule, the IC50 [30] was 7.34 µM, the inhibition [31] was “Active” and the Activity [32] was 83.9%. For the same molecule, the inhibition [33] was “Active”.
